# Tested on: self-sustaining status epilepticus in Sprague Dawley rats
# Test: In vivo status epilepticus (perforant path stimulation)
# Set-up: species or system rat
# Details: for effectiveness in status epilepticus model: previously found by the inventors
# Experimental: This method has been described in detail previously (Walker et al., 1999). In brief, male Sprague Dawley rats […] were anesthetized with 1-2% isoflurane in O2. An earth electrode was positioned subcutaneously, and a monopolar recording electrode was implanted stereotactically into the right hippocampus (coordinates, 2.5 mm lateral and 4 mm caudal from bregma). A bipolar stimulating electrode was implanted in the right hemisphere and advanced into the angular bundle (coordinates, 4.4 mm lateral and 8.1 mm caudal from bregma) to stimulate the perforant path. The depths of the electrodes were adjusted to maximize the slope of the dentate granule cell field potential (Guo et al., 1999). The electrodes were held in place with dental acrylic and skull screws. The animals were allowed to recover from anaesthesia. Seven days later, the perforant path was electrically stimulated with 4-5 mA 50 μsec monopolar pulses at 20 Hz for 2 hr; this induced self-sustaining status epilepticus. After 10 min of self-sustaining status epilepticus, compounds or vehicle were administered and the behavioural seizures and EEG were monitored for 3 hours. At this point diazepam (10 mg/kg) was administered to all animals to stop the status epilepticus. Groups were compared by ANOVA followed by post-hoc testing using Tukey test, using SPSS.
compound,measurement,setting,value
"CCCC(CCC)C(=O)O [VPA, 2-propylpentanoic acid, reference compound]",seizure control in words,"400 mg/kg, 3 hour test period",strongly attenuated seizures
same,animals in which seizures completely stopped,"400 mg/kg, after 2 hours, 7 animals per group",did not terminate the seizures in any
same,spike amplitude,"400 mg/kg, first hour",75.2±9.2%
same,spike amplitude,"400 mg/kg, second hour",61.1±8.3%
same,spike amplitude,"400 mg/kg, third hour",55.1±6.6%
same,effectiveness in status epilepticus model,high dose 600 mg/kg,effective
same,effectiveness in status epilepticus model,lower dose 400 mg/kg,partial effectiveness

# From US11491127B2, “Therapeutic use of compounds” (UCL BUSINESS LTD, priority 2010, dated 2022)
